Data published in patent publication US9604964B2, “Dihydropyrazole GPR40 modulators” (BRISTOL-MYERS SQUIBB COMPANY, priority 2012, dated 2017).

Molecular target: human GPR40 (Homo sapiens, UniProt O14842)
Assay: FDSS-based intracellular calcium assay (Human GPR40 in vitro assay)
Format: cell-based
Parameters: 3xFLAG; expressed in transfected cells
Conditions: intracellular Ca2+ response, cells expressing GPR40; read-out: hGPR40 EC50
Procedure: FDSS-based Intracellular Calcium Assay
Compounds are dissolved in DMSO and diluted to desired concentrations with assay buffer and added to the cells as 3× solution (20 μL per well). Run fluorescence/luminescence reader FDSS (Hamamatsu) to read intracellular Ca^2+ response.

human GPR40, sequence (O14842 whole entry): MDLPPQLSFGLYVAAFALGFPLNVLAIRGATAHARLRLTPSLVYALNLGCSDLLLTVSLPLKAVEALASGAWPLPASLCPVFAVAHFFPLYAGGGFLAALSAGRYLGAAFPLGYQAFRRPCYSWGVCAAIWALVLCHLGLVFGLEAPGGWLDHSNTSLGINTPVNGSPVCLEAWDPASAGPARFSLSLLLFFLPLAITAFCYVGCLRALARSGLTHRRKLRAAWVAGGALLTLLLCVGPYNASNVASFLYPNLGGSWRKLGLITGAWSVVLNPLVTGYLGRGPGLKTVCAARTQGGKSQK

EC50 | SMILES
4230 nM | COc1ccc(F)c(N2CCCC(Oc3ccc(N4N=C(C(F)(F)F)[C@@H](C)[C@@H]4CC(=O)O)cc3)C2)c1 (mixture of isomers) [Example B26, 2-((4S,5S)-1-(4-((1-(2-fluoro-5-methoxyphenyl)piperidin-3-yl)oxy)phenyl)-4-methyl-3-(trifluoromethyl)-4,5-dihydro-1H-pyrazol-5-yl)acetic acid]
3220 nM | CCOc1ccc(F)c(N2CCC(Cc3ccc(N4N=C(C(F)(F)F)[C@@H](C)[C@@H]4CC(=O)O)cc3)C(C)C2)c1 (single isomer, unassigned) [Example 3 (Isomer 1)]
471 nM | CCOc1ccc(F)c(N2CCC(Cc3ccc(N4N=C(C(F)(F)F)[C@@H](C)[C@@H]4CC(=O)O)cc3)C(C)C2)c1 (single isomer, unassigned) [Example 3 (Isomer 2)]
1140 nM | CCOc1ccc(F)c(N2CCC(Cc3ccc(N4N=C(C(F)(F)F)[C@@H](C)[C@@H]4CC(=O)O)cc3)C(C)C2)c1 (single isomer, unassigned) [Example 3 (Isomer 3)]
672 nM | CCOc1ccc(F)c(N2CCC(Cc3ccc(N4N=C(C(F)(F)F)[C@@H](C)[C@@H]4CC(=O)O)cc3)C(C)C2)c1 (single isomer, unassigned) [Example 3 (Isomer 4)]
352 nM | COCC1CN(c2cc(OC)ncc2Cl)CCC1Oc1ccc(N2N=C(C(F)(F)F)[C@@H](C)[C@@H]2CC(=O)O)cc1 (single isomer, unassigned) [Example B3, Isomer 1]
768 nM | COCC1CN(c2cc(OC)ncc2Cl)CCC1Oc1ccc(N2N=C(C(F)(F)F)[C@@H](C)[C@@H]2CC(=O)O)cc1 (single isomer, unassigned) [Example B3, Isomer 2]
2000 nM | COCC1CN(c2cc(OC)ncc2Cl)CCC1Oc1ccc(N2N=C(C(F)(F)F)[C@@H](C)[C@@H]2CC(=O)O)cc1 (single isomer, unassigned) [Example B3, Isomer 3]
389 nM | CCOc1ccc(F)c(N2CCC(Oc3ccc(N4N=C(C#N)C(C)C4CC(=O)O)cc3)CC2)c1 (single isomer, unassigned) [Example B5 Isomer 1, 2-(3-cyano-1-(4-((1-(5-ethoxy-2-fluorophenyl)piperidin-4-yl)oxy)phenyl)-4-methyl-4,5-dihydro-1H-pyrazol-5-yl)acetic acid]
4950 nM | CCOc1ccc(F)c(N2CCC(Oc3ccc(N4N=C(C#N)C(C)C4CC(=O)O)cc3)CC2)c1 (single isomer, unassigned) [Example B5, Isomer 2, 2-(3-cyano-1-(4-((1-(5-ethoxy-2-fluorophenyl)piperidin-4-yl)oxy)phenyl)-4-methyl-4,5-dihydro-1H-pyrazol-5-yl)acetic acid]
303 nM | COc1cc(N2CCC(Oc3ccc(N4N=C(C#N)C(C)C4CC(=O)O)cc3)C(C)C2)c(Cl)cn1 (single isomer, unassigned) [Example B6, Isomer 1, 2-(1-(4-((1-(5-chloro-2-methoxypyridin-4-yl)-3-methylpiperidin-4-yl)oxy)phenyl)-3-cyano-4-methyl-4,5-dihydro-1H-pyrazol-5-yl)acetic acid]
4850 nM | COc1cc(N2CCC(Oc3ccc(N4N=C(C#N)C(C)C4CC(=O)O)cc3)C(C)C2)c(Cl)cn1 (single isomer, unassigned) [Example B6, Isomer 2, 2-(1-(4-((1-(5-chloro-2-methoxypyridin-4-yl)-3-methylpiperidin-4-yl)oxy)phenyl)-3-cyano-4-methyl-4,5-dihydro-1H-pyrazol-5-yl)acetic acid]
394 nM | CCOc1ccc(F)c(N2CCC(Oc3ccc(N4N=C(C#N)C(C)C4CC(=O)O)cc3)C(C)C2)c1 (single isomer, unassigned) [Example B7, Isomer 1, 2-(3-Cyano-1-(4-((1-(5-ethoxy-2-fluorophenyl)-3-methylpiperidin-4-yl)oxy)phenyl)-4-methyl-4,5-dihydro-1H-pyrazol-5-yl)acetic acid]
5790 nM | CCOc1ccc(F)c(N2CCC(Oc3ccc(N4N=C(C#N)C(C)C4CC(=O)O)cc3)C(C)C2)c1 (single isomer, unassigned) [Example B7, Isomer 2, 2-(3-Cyano-1-(4-((1-(5-ethoxy-2-fluorophenyl)-3-methylpiperidin-4-yl)oxy)phenyl)-4-methyl-4,5-dihydro-1H-pyrazol-5-yl)acetic acid]
1040 nM | C[C@@H]1C(C(F)(F)F)=NN(c2ccc(OC3CCN(c4cc5c(cc4Cl)CCO5)CC3)cc2)[C@H]1CC(=O)O [Example 4, 2-((4S,5S)-1-(4-((1-(5-chloro-2,3-dihydrobenzofuran-6-yl)piperidin-4-yl)oxy)phenyl)-4-methyl-3-(trifluoromethyl)-4,5-dihydro-1H-pyrazol-5-yl)acetic acid]
5810 nM | CCCc1cnc(N2CCC(Oc3ccc(N4N=C(C(F)(F)F)[C@@H](C)[C@@H]4CC(=O)O)cc3)CC2)nc1 [Example 5, 2-((4S,5S)-4-methyl-1-(4-((1-(5-propylpyrimidin-2-yl)piperidin-4-yl)oxy)phenyl)-3-(trifluoromethyl)-4,5-dihydro-1H-pyrazol-5-yl)acetic acid]
7520 nM | C[C@@H]1C(C(F)(F)F)=NN(c2ccc(OC3CCN(c4ccc(C(F)(F)F)cn4)CC3)cc2)[C@H]1CC(=O)O [Example 6, 2-((4S,5S)-4-methyl-3-(trifluoromethyl)-1-(4-((1-(5-(trifluoromethyl)pyridin-2-yl)piperidin-4-yl)oxy)phenyl)-4,5-dihydro-1H-pyrazol-5-yl)acetic acid]
4480 nM | C[C@@H]1C(C(F)(F)F)=NN(c2ccc(OC3CCN(c4ncc(Cl)cn4)CC3)cc2)[C@H]1CC(=O)O [Example 7, 2-((4S,5S)-1-(4-((1-(5-chloropyrimidin-2-yl)piperidin-4-yl)oxy)phenyl)-4-methyl-3-(trifluoromethyl)-4,5-dihydro-1H-pyrazol-5-yl)acetic acid]
1080 nM | CC1CN(c2cc(OCC(F)(F)F)ccc2F)CCC1Oc1ccc(N2N=C(C(F)(F)F)[C@@H](C)[C@@H]2CC(=O)O)cc1 (stereo partly drawn) [Example 11, 2-((4S,5S)-1-(4-((1-(2-fluoro-5-(2,2,2-trifluoroethoxy)phenyl)-3-methylpiperidin-4-yl)oxy)phenyl)-4-methyl-3-(trifluoromethyl)-4,5-dihydro-1H-pyrazol-5-yl)acetic acid]

SMILES | EC50
CCOc1ccc(F)c(N2CCC(Oc3ccc(N4N=C(C(F)(F)F)[C@@H](C)[C@@H]4CC(=O)O)cc3)C(Cc3ccccc3)C2)c1 (single isomer, unassigned) [Example 28 (Isomer 1)] | 132 nM
CCOc1ccc(F)c(N2CCC(Oc3ccc(N4N=C(C(F)(F)F)[C@@H](C)[C@@H]4CC(=O)O)cc3)C(OC)C2)c1 (single isomer, unassigned) [Example 31 (Isomer 2)] | 910 nM
COc1cc(N2CCC(Oc3ccc(N4N=C(C(F)(F)F)[C@@H](C)[C@@H]4CC(=O)O)cn3)C(C)C2)c(Cl)cn1 (single isomer, unassigned) [Example 103 Isomer 1] | 533 nM
COc1ccc(F)c(N2C3CCC2CC(Oc2ccc(N4N=C(C(F)(F)F)[C@@H](C)[C@@H]4CC(=O)O)cc2)C3)c1 (stereo partly drawn) [Example 2, 2-((4S,5S)-1-(4-((8-(2-fluoro-5-methoxyphenyl)-8-azabicyclo[3.2.1]octan-3-yl)oxy)phenyl)-4-methyl-3-(trifluoromethyl)-4,5-dihydro-1H-pyrazol-5-yl)acetic acid] | 644 nM
